One compound from patent EP2698155A1, “Pharmaceutical unit dosage form comprising 4-phenylbutyric acid” (priority 2012, dated 2014) can be followed below.

In the data set the test system is adenocarcinoma of the prostate. Kind of data set: Treatment of human patients with prostate cancer (case reports). The conditions noted are these: general statement. In kind it is in vivo. The protocol: Diseases that can be beneficially influenced by the present dosage form include in particular benign prostate hyperplasy, cancer, leukemias, cystic fibrosis, AIDS, kidney and liver diseases, thalassemia and urea cycle disorders. For example, the treatment of an adenocarcinoma of the prostate can be carried out by administering twice daily, e.g. in the morning and evening, a pharmaceutical tablet formulation containing 250 mg of sodium 4-phenylbutyrate. […] Treatment may be continued for several month or years until a satisfactory effect is observed or the patient is total free of the disease.
Following are descriptions of treatments and test results obtained from human patients.
Because of progressive bone pain they underwent bilateral orchiectomy in February 1996. They became free of pain until November 1998 when they again suffered bone pain mainly in their back. They were than treated orally twice daily with 250 mg of sodium phenylbutyrate retard tablets according to Example 1. Four weeks later they were free of pain. They stayed on this medication until June 2001 without any other symptoms of the prostate carcinoma. The PSA and the alkaline phosphatase were always within normal limits.
They stay now in complete unmaintained remission for 12 months.
This patient presented in March 1997 with a pathological fracture of the 8th thoracic vertebra caused by metastatic destruction. […]

In the case of `O=C([O-])CCCc1ccccc1.[Na+]` [sodium 4-phenylbutyrate], the “therapeutic effect (pain)” value (adenocarcinoma of the prostate, tablet with 250 mg twice daily, after treatment of about one month) was “pain disappears”. The side effects result (over a long period of treatment) was “no side effects”.
